Data taken from patent US12139477B2, “Compounds, salts thereof and methods for treatment of diseases” (ACADIA PHARMACEUTICALS INC., priority 2017, dated 2024).

What was measured:
Type in all cases: cell-based
5HT2A [1] = molecular target: T1, 5HT2A (Homo sapiens, UniProt P28223); assay: Beta-arrestin recruitment assay (Tango technology, antagonist mode); set-up: engineered protease cleavage site followed by tethered transcription factor (C); conditions: read-out: 5HT2A (pIC50) Beta-arrestin (converted)
T1 sequence (P28223 whole entry): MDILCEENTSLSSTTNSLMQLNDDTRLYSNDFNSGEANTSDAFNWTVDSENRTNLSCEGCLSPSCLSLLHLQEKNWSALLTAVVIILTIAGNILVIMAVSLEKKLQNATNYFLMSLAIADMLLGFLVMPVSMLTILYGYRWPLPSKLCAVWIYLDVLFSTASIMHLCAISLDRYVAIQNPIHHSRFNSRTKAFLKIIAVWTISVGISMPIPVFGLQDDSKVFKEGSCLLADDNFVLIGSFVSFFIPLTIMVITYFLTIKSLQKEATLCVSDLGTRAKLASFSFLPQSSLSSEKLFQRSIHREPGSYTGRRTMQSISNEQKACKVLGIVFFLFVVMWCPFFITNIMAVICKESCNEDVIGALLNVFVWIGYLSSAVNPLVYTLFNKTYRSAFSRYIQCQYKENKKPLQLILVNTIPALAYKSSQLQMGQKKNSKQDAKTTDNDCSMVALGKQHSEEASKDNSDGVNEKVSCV
Text: Beta-Arrestin Recruitment Assay:
Detecting GPCR Signaling Using the Tango Technology
GPCR signaling through beta-arrestin was detected by the Tango Technology at Thermofisher. This technology is based upon the interaction of intracellular beta-arrestin proteins and the target receptor. Upon ligand binding to the target receptor, the protease tagged arrestin is stimulated and recruited to the engineered protease site on the C-terminus of the GPCR, which triggers release of the tethered transcription factor. The free transcription factor then enters the nucleus and stimulates the beta-lactamase (bla) activity.
Test compounds are received at 1000× (or greater) of the desired starting concentration in 100% DMSO. The 1000× test compounds are serially diluted (10 point […] increments) in 100% DMSO.
Antagonist Assay Protocol:
An Agonist assay screen (see above) is run to obtain the EC80 concentration of the known activator to add in step 3.
1. 32 μL of cells diluted in Assay Media to appropriate cell density are added to the assay plate. If needed, cells are incubated at 37° C./5% CO2 for 6 or 16-24 hours (depending upon cell line specifics) before compound is added.
2. 40 nL of 1000× compound or known antagonist titration plus 4 μL of Assay Media is added to the cells in the assay plate and incubated for 30 minutes at 37° C./5% CO2 in a humidified incubator.
3. 4 μL of the 10×EC80 concentration of agonist, as determined in an Agonist assay, is added to all wells containing test compound and known inhibitor to bring the final assay volume to 40 μL.
4. 4 μL of Assay Media is added to remaining control wells to bring the volume up to 40 μL.
5. The assay plate is incubated for 5 or 16 hours (depending upon cell line specifics) at 37° C./5% CO2 in a humidified incubator.
6. 8 μL of the Substrate Loading Solution is added to the assay plate.
7. The assay plate is incubated for 2 hours at room temperature, in the dark.
8. The assay plate is read on a fluorescence plate reader (Tecan Safire2) and the data is analyzed.
SelectScreen Cell-Based GPCR Profiling Service uses XLfit from IDBS. The dose response curve is curve fit to model number 205 (sigmoidal dose-response model). Custom logic was built in-house for the data analysis tool to address the different compound characteristics that can be observed with functional assays. Using this logic the relative EC50/IC50 value for each given compound is provided.

5HT2A [2] = molecular target: T1, 5HT2A; assay: Receptor Selection and Amplification (R-SAT) functional assay; set-up: expressed in transfected cells; host or cells: NIH3T3 cells, pSI mammalian expression vector; conditions: NIH3T3 cells; Ki from IC50 by Cheng and Prussoff; read-out: 5-HT2a (pKi) (R-SAT) (converted)
Text: Receptor Selection and Amplification (R-SAT) Assays. […] The IC50 determined in the RSAT assay was converted into a Ki value using the method of Cheng and Prussoff, Biochem Pharmacol., 1973 Dec. 1; 22(23):3099-108. pKi is the negative of the log(Ki).

hERG channel = molecular target: T2, hERG channel (Homo sapiens, UniProt Q12809); assay: hERG assay, whole cell recordings in CHO cells (AVIVA); conditions: CHO cells stably expressing hERG, pH 7.4
T2 construct: host or cells: CHO cells, stably transfected
T2 sequence (Q12809 whole entry): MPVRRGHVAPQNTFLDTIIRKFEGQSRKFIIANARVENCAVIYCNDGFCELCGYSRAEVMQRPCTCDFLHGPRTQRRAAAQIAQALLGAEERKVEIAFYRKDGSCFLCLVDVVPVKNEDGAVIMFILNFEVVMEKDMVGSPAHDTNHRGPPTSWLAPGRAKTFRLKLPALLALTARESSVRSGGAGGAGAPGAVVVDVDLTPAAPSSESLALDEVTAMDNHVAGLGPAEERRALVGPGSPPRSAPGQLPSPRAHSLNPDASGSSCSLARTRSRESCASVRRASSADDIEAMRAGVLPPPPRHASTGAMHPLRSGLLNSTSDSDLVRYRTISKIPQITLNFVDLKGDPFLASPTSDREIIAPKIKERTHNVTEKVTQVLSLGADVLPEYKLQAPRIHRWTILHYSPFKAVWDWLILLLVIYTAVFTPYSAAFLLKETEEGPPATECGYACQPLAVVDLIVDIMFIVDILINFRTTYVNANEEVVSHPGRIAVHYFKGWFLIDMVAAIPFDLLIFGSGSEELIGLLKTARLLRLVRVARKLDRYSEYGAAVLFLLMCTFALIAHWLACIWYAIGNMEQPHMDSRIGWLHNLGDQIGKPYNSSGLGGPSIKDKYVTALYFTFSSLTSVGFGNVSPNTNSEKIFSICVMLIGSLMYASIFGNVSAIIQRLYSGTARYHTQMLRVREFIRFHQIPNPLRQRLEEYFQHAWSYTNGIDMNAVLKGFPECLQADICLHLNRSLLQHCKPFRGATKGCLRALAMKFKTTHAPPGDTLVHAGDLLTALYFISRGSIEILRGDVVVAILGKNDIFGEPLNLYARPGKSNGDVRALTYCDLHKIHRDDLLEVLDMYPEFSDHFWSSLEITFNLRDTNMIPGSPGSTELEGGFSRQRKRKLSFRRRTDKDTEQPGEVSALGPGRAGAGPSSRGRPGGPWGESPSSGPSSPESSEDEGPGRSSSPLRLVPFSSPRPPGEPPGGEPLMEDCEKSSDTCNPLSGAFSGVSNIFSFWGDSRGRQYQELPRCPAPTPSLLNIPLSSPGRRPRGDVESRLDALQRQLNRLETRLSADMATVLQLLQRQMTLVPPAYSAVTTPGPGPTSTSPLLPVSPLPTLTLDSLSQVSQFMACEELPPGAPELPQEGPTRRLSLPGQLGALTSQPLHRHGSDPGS
Experimental: The most common mechanism for these adverse events is the inhibition of one or more cardiac potassium channels, in particular hERG. This current is important for cardiac myocyte repolarization and is a common target for drugs that prolong the QT interval. Test articles in this study were therefore characterized to determine their ability to inhibit the hERG channel. Ion channel activity was measured at AVIVA Biosciences Corporation (San Diego, CA), using a stably transfected Chinese Hamster Ovary (CHO) cell line expressing the hERG mRNA.
Cells: AVIVA's CHO cell line, which stably expresses hERG channels, was used for the study. Cells were cultured in DMEM/F12 containing 10% FBS, 1% penicillin/streptomycin and 500 μg/ml G418. Before testing, cells were harvested using Accumax (Innovative Cell Technologies).
Solutions: For electrophysiological recordings, the following solutions were used: External Solution: 2 mM CaCl2); 2 mM MgCl2; 4 mM KCl; 150 mM NaCl; 10 mM Glucose; 10 mM HEPES; 305-315 mOsm; pH 7.4 (adjusted with 5M NaOH); Internal Solution: 140 mM KCl; 10 mM MgCl2; 6 mM EGTA; 5 mM HEPES-Na; 5 mM ATP-Mg; 295-305 mOsm; pH 7.25 (adjusted with 1M KOH).
Electrophysiology: Whole cell recordings were performed using PX 7000A (Axon Instruments) with AVIVA's SealChip™ technology. Cells were voltage clamped at a holding potential of −80 mV. The hERG current was then activated by a depolarizing step to −50 mV for 300 ms. This first step at −50 mV was used as a baseline for measuring peak amplitude of the tail current. Next, a voltage step to +20 mV was applied for 5 s to activate the channels. Finally, a step back to −50 mV for 5 s removed activation and the deactivating tail current was recorded.
Test Article Handling and Dilutions: All test articles were prepared from 10 mM DMSO stock solutions provided by Sponsor. Solutions were mixed by sonication for 20 min, followed by vigorous vortexing. Prior to testing, compounds were diluted to test concentrations in glass vials using External Solution. Dilutions were prepared no longer than 20 min prior to use.
Electrophysiology Procedures: After achieving whole cell configuration, cells were monitored for 90 s to assess stability and then washed with External Solution for 66 s. The voltage protocol previously described was then applied to the cells every 12 s throughout the procedure. Only stable cells with recording parameters above threshold (see Quality Control section) were allowed to enter the drug addition procedure. External solution containing 0.1% DMSO (vehicle) was applied to the cells to establish a baseline. […] Test article solutions were added to cells in 4 separate additions. Cells were kept in test solution until effect of the test article reached steady state, to a maximum of 12 min. Next, 1 μM cisapride (positive control) was added. Finally, washout with External Solution was performed until the recovery current reached steady state.
Data Analysis: Data analysis was performed using DataXpress (Axon Instruments), Clampfit (Axon Instruments) and Origin (OriginLab Corporation) software.

Row | SMILES | IC50 (5HT2A [1]) [nM] | Ki (5HT2A [2]) [nM] | inhibition at 1 µM (hERG channel) [%]
1 | Cc1c[nH]c2ccc(CNC(=O)N(Cc3ccc(F)cc3F)C3CCN(C)CC3)cc12 [Example 21] | 200 |  | 
2 | Cc1cc2cc(CNC(=O)N(Cc3ccc(F)cc3F)C3CCN(C)CC3)ccc2n1C [Example 25] | 100 |  | 
3 | CN1CCC(N(Cc2ccc(F)cc2F)C(=O)NCc2ccc3ncccc3c2)CC1 [Example 27] | 79.4 |  | 
4 | CN1CCC(N(Cc2ccc(F)cc2F)C(=O)NCc2ccc3c(c2)OC(C)(C)C=C3)CC1 [Example 34] | 316 |  | 
5 | CN1CCC(N(Cc2ccc(F)cc2F)C(=O)NCc2ccc3cnn(C)c3c2)CC1 [Example 35] | 200 |  | 
6 | CC(C)Oc1ccc(CNC(=O)N(Cc2ccc(Cl)cc2F)C2CCN(C)CC2)cc1 [Example 137, 1-[(4-chloro-2-fluorophenyl)methyl]-1-(1-methylpiperidin-4-yl)-3-{[4-(propan-2-yloxy)phenyl]methyl}urea; Trifluoroacetic Acid] |  | 3.98 | 37
7 | CC(C)COc1ccc(CNC(=O)N(Cc2ccc(Cl)cc2F)C2CCN(C)CC2)cc1 [Example 139, 1-[(4-chloro-2-fluorophenyl)methyl]-1-(1-methylpiperidin-4-yl)-3-{[4-(2-methylpropoxy)phenyl]methyl}urea; Trifluoroacetic Acid] |  | 3.98 | 35
8 | CN1CCC(N(Cc2ccc(F)cc2F)C(=O)NCc2ccc(OCC3CC3)cc2)CC1 [Example 141, 3-{[4-(cyclopropylmethoxy)phenyl]methyl}-1-[(2,4-difluorophenyl)methyl]-1-(1-methylpiperidin-4-yl)urea] |  | 0.631 | 42
9 | CC(C)Oc1ccc(CNC(=O)N(Cc2ccc(F)cc2F)C2CCNCC2)cc1 [Example 142, 1-[(2,4-difluorophenyl)methyl]-1-(piperidin-4-yl)-3-{[4-(propan-2-yloxy)phenyl]methyl}urea] |  | 1 | 8
10 | CC(C)Oc1ccc(CNC(=O)N(Cc2ccc(F)cc2F)C2CCN(C)CC2)cc1F [Example 143, 1-[(2,4-difluorophenyl)methyl]-3-{[3-fluoro-4-(propan-2-yloxy)phenyl]methyl}-1-(1-methylpiperidin-4-yl)urea; Trifluoroacetic Acid] |  | 0.501 | 41
11 | CC(C)Oc1ccc(CNC(=O)N(Cc2ccc(F)cc2F)C2CCN(C)CC2)c(F)c1 [Example 144, 1-[(2,4-difluorophenyl)methyl]-3-{[2-fluoro-4-(propan-2-yloxy)phenyl]methyl}-1-(1-methylpiperidin-4-yl)urea; Trifluoroacetic Acid] |  | 1 | 37
12 | Cc1cc(CNC(=O)N(Cc2ccc(F)cc2F)C2CCN(C)CC2)ccc1OC(C)C [Example 145, 1-[(2,4-difluorophenyl)methyl]-3-{[3-methyl-4-(propan-2-yloxy)phenyl]methyl}-1-(1-methylpiperidin-4-yl)urea; Trifluoroacetic Acid] |  | 1.58 | 39
13 | C#CCOc1ccc(CNC(=O)N(Cc2ccc(F)cc2F)C2CCN(C)CC2)cc1 [Example 148, 1-[(2,4-difluorophenyl)methyl]-1-(1-methylpiperidin-4-yl)-3-{[4-(prop-2-yn-1-yloxy)phenyl]methyl}urea; Trifluoroacetic Acid] |  | 2 | 33
14 | CC(C)(C)Oc1ccc(CNC(=O)N(Cc2ccc(F)cc2F)C2CCNCC2)cc1 [Example 149, 3-{[4-(tert-butoxy)phenyl]methyl}-1-[(2,4-difluorophenyl)methyl]-1-(piperidin-4-yl)urea; Trifluoroacetic Acid] |  | 1 | 40
15 | CN1CCC(N(Cc2ccc(F)cc2F)C(=O)NCc2ccc(OCCCF)cc2)CC1 [Example 151, 3-[(2,4-difluorophenyl)methyl]-1-{[4-(3-fluoropropoxy)phenyl]methyl}-3-(1-methylpiperidin-4-yl)urea; Trifluoroacetic Acid] |  | 2 | 16
16 | CN1CCC(N(Cc2ccc(F)cc2F)C(=O)NCc2ccc(C(C)(F)F)cc2)CC1 [Example 152, 1-{[4-(1,1-difluoroethyl)phenyl]methyl}-3-[(2,4-difluorophenyl)methyl]-3-(1-methylpiperidin-4-yl)urea; Trifluoroacetic Acid] |  | 2.51 | 38
17 | CN1CCC(N(Cc2ccc(F)cc2F)C(=O)NCc2ccc(OC(CF)CF)cc2)CC1 [Example 153, 3-[(2,4-difluorophenyl)methyl]-1-({4-[(1,3-difluoropropan-2-yl)oxy]phenyl}methyl)-3-(1-methylpiperidin-4-yl)urea; Trifluoroacetic Acid] |  | 1.58 | 29
18 | CN1CCC(N(Cc2ccc(F)cc2F)C(=O)NCc2ccc(OCC(F)F)cc2)CC1 [Example 154, 3-{[4-(2,2-difluoroethoxy)phenyl]methyl}-1-[(2,4-difluorophenyl)methyl]-1-(1-methylpiperidin-4-yl)urea; Trifluoroacetic Acid] |  | 1.26 | 23
19 | CN1CCC(N(Cc2ccc(F)cc2F)C(=O)NCc2ccc3c(c2)C=CC(C)(C)O3)CC1 [Example 155, 1-[(2,4-difluorophenyl)methyl]-3-[(2,2-dimethyl-2H-chromen-6-yl)methyl]-1-(1-methylpiperidin-4-yl)urea; Trifluoroacetic Acid] |  | 0.158 | 47
20 | O=C(NCc1ccc(OC2CC2)cc1)N(Cc1ccc(F)cc1F)C1CCNCC1 [Example 157, 1-[(4-cyclopropoxyphenyl)methyl]-3-[(2,4-difluorophenyl)methyl]-3-(piperidin-4-yl)urea; Trifluoroacetic Acid] |  | 0.631 | 20
21 | CC1(C)Cc2cc(CNC(=O)N(Cc3ccc(F)cc3F)C3CCNCC3)ccc2O1 [Example 158, 1-[(2,4-difluorophenyl)methyl]-3-[(2,2-dimethyl-2,3-dihydro-1-benzofuran-5-yl)methyl]-1-(piperidin-4-yl)urea; Trifluoroacetic Acid] |  | 0.794 | 8
